In data set [1] the test system is human-derived lung cancer LU5269 subcutaneous xenograft. Nature of the data set: Efficacy in human-derived lung cancer LU5269 subcutaneous xenograft model. The class given is in vivo, NOD/SCID mice. As to conditions: PO, QD*21. As to the method: Tumor tissues were collected from LU5269 lung cancer xenograft model bearing mice, cut into tumor masses with a diameter of 2-3 mm, and seeded subcutaneously in the right anterior scapula of NOD/SCID mice.
Before administration, all animals were weighed and tumor volume was measured using a vernier caliper. When the tumor grew to have an average volume of about 140 mm^3, group-based drug administration was performed based on tumor size (vehicle: 0.2% HPC + 0.5% Tween 80). Since tumor volume can affect the effectiveness of treatment, random grouping design was used to group the mice according to tumor volume to ensure that the tumor volumes in different groups were similar. Tumor volume calculation formula: Tumor volume (mm^3) = 1/2 × (a ×b^2) (wherein a denotes the long diameter and b denotes the short diameter).
(§1) Table 12 Route, dose and regimen of administration in the subcutaneous xenograft model

Data set [2] is described as follows: Pharmacokinetic study in beagles. The class given is in vivo. The conditions noted are these: dog, plasma; for bioavailability: IV 1mpk/PO 2mpk. How it is done:
On the day of administration, the test sample was prepared using a 5%DMSO+5%Solutol+90%Saline vehicle formula, and the drug solution was prepared and kept ready for use.
The IV group received a dose of 1 mg/kg, and the PO group received a dose of 2 mg/kg. The animals were fasted overnight before administration.
The animals were weighed before administration, and the dose was calculated based on the body weight. The drug was administered once via IV and PO on the day of administration. After administration, blood was collected from an appropriate vein at 0.083 h, 0.25 h, 0.5 h, 1.0 h, 2.0 h, 4.0 h, 6.0 h, 8.0 h and 24.0 h, about 1 mL each time, placed in EDTA-K2 anticoagulation blood collection tubes, centrifuged at 4000 rpm for 10 min (4°C), and plasma was separated within 1 h. The plasma was drawn into labeled EP tubes (the label should at least indicate the subject code, animal number, collection time, collection date, etc.), and stored at -80°C for testing. The process from blood collection to centrifugation was carried out in ice bath. The animals were allowed to eat and have free access to water 3 h after administration. The concentration of the test sample in beagle plasma was detected using validated LC-MS/MS.

Data set [3] in a line: Pharmacokinetic study in SD rats. The conditions noted are these: rat, plasma; for AUC(0-t) at 24 h / AUC(0-t): read-out: AUC0-24h. The class given is in vivo. How it is done:
On the day of administration, the test sample was prepared using a 2% HPC + 5% solutol aqueous solution vehicle formula, and the drug solution was prepared and kept ready for use.
The PO group was given the designated dose. The animals in the oral administration group were fasted overnight, allowed free access to water, and returned to food 3 hours after administration.
The animals were weighed before administration, and the dose was calculated based on the body weight. The drug was administered once via PO on the day of administration. After administration in the PO group, blood was collected from the jugular vein at 0.083 h, 0.25 h, 0.5 h, 1.0 h, 2.0 h, 4.0 h, 6.0 h, 8.0 h and 24 h, about 200 µL each time, placed in EDTA-K2 anticoagulation blood collection tubes, centrifuged at 4000 rpm for 10 min (4°C), and plasma was separated within 1 h. The plasma was drawn into labeled EP tubes (the label should at least indicate the subject code, animal number, collection time, collection date, etc.), and stored at -80°C for testing. The process from blood collection to centrifugation was carried out in ice bath. The concentration of the test sample in SD rat plasma was detected using validated LC-MS/MS.

Data set [4] in a line: Associated plasma PK in the LU5269 xenograft study. The class given is in vivo, NOD/SCID mice. The conditions noted are these: mouse, PO, QD*21, plasma after the last administration. How it is done:
At the endpoint of the experiment, plasma samples from groups G2-G6 were collected: plasma was collected from the first 3 mice in each group at 0 h, 1 h, 2 h, and 4 h after the last administration; plasma was collected from the last 3 mice in each group at 0.5 h, 6 h, 9 h, and 24 h after the last administration.
as §1

The structures appear in SMILES notation. Where two headings read alike, the source gives them in different places.

For the compound `CN1CC[C@@H](Nc2cccc3c(CC(F)(F)F)c(C#CCNC(=O)c4cnn(C(C)(C)C)c4N)nn23)[C@@H](F)C1` [Compound 047], the TGI worked out at 82% in data set [1] (50mpk), 111% in data set [1] (75mpk), 119% in data set [1] (100 mpk) and 119% in data set [1] (150mpk). The AUC(0-t) was found to be 1400 ng·h/mL in data set [2] (1 mg/kg, IV 1mpk); 1640 ng·h/mL in data set [2] (2 mg/kg, PO 2mpk); 11700 ng·h/mL in data set [4] (50 mg/kg, 50mpk); 24400 ng·h/mL in data set [4] (75 mg/kg, 75mpk); 39400 ng·h/mL in data set [4] (100 mg/kg, 100 mpk); 68000 ng·h/mL in data set [4] (150 mg/kg, 150mpk). Also, the C0 in data set [2] (1 mg/kg, IV 1mpk) was determined as 414 ng/mL. In data set [2] (1 mg/kg, IV 1mpk), this compound displayed a distribution volume (Vd) of 3.8 L/kg. Besides, the clearance in data set [2] (1 mg/kg, IV 1mpk) worked out at 12.8 mL/min/kg. In addition, the half-life in data set [2] (1 mg/kg, IV 1mpk) was 5.6 h; in data set [2] (2 mg/kg, PO 2mpk), 14 h; in data set [4] (50 mg/kg, 50mpk) it was 2.2 h; in data set [4] (100 mg/kg, 100 mpk), 1.9 h; in data set [4] (150 mg/kg, 150mpk) it was 2.6 h. The peak concentration (Cmax) in data set [2] (2 mg/kg, PO 2mpk) was 199 ng/mL; in data set [3] (50 mg/kg, po 50 mpk), 13200 ng/mL; in data set [3] (300 mg/kg, po 300 mpk), 32800 ng/mL; in data set [4] (50 mg/kg, 50mpk) it was 1690 ng/mL; in data set [4] (75 mg/kg, 75mpk), 2590 ng/mL; in data set [4] (100 mg/kg, 100 mpk), 4440 ng/mL. For the same compound, the peak concentration (Cmax) in data set [4] (150 mg/kg, 150mpk) is 5550 ng/mL. Moreover, the time to peak (Tmax) in data set [2] (2 mg/kg, PO 2mpk) was found to be 2 h. This compound also registered a bioavailability in data set [2] of 42%. Also, the AUC(0-t) at 24 h turned out to be 113000 ng·h/mL in data set [3] (50 mg/kg, po 50 mpk) and 431000 ng·h/mL in data set [3] (300 mg/kg, po 300 mpk).
For the compound `CNC(=O)c1ccc(NCC#Cc2cc3c(N[C@@H]4CCN(C)C[C@@H]4F)cccc3n2CC(F)(F)F)c(OC)c1` [Control compound, reference compound], the TGI in data set [1] (100 mpk) is recorded as 119%. Besides, in data set [2] (beagle, 1 mg/kg, IV 1mpk), the AUC(0-t) was determined as 849 ng·h/mL, the C0 was 277 ng/mL, the Vd was determined as 6.7 L/kg and the clearance was 20.4 mL/min/kg. In data set [2] (beagle, 1 mg/kg, IV 1mpk), this compound showed a half-life of 4.8 h. The same compound yielded a bioavailability in data set [2] (beagle, 2 mg/kg) of 82%. Further, in data set [2] (beagle, 2 mg/kg, PO 2mpk), the AUC(0-t) was determined as 1490 ng·h/mL, the Cmax was 101 ng/mL, the Tmax came out at 4.7 h and the half-life was 6.7 h. In addition, in data set [3] (50 mg/kg, po 50 mpk), the Cmax stood at 11500 ng/mL and the AUC(0-t) was 148000 ng·h/mL. Moreover, in data set [3] (300 mg/kg, po 300 mpk), the concentration peaked (Cmax) at 25400 ng/mL and the AUC(0-t) is 416000 ng·h/mL. In data set [4] (NOD/SCID, 100 mg/kg, 100 mpk), this compound registered an AUC(0-t) of 413000 ng·h/mL and a Cmax of 24300 ng/mL.

Values taken from EP4737449A1 (Changchun Genescience Pharmaceutical Co., Ltd., priority 2023, dated 2025).
